Measured values: patent US20240254119A1 (THIRD HARMONIC BIO, INC., priority 2022, published 2024)

Columns and labels:
PDGFRα = target: T1, PDGFRα (Homo sapiens, UniProt P16234); experiment: HTRF biochemical assay, PDGFRα; conditions: Table 4, read-out: PDFGRα Biochemical IC50 avg
T1 construct: purchased Millipore 14-467 (lot 26321_ACTI)
Outline: (§1)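 Kinase phosphorylation of a FAM-labelled peptide substrate, with ATP and Mn^2+ cofactors, run for 3 h at 25 °C, with optional enzyme–compound pre-incubation. Reactions were quenched with EDTA, and phosphopeptide was detected by anti-phosphotyrosine antibody HTRF.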

[1] = target: T2, KIT-NanoLuc fusion in HEK293 cells (Homo sapiens, UniProt P10721); experiment: NanoBRET cellular target engagement assay, KIT; format: cell-based
T2 construct: expressed in transfected cells; host or cells: HEK293, transient transfection
T2 sequence (P10721 26-976): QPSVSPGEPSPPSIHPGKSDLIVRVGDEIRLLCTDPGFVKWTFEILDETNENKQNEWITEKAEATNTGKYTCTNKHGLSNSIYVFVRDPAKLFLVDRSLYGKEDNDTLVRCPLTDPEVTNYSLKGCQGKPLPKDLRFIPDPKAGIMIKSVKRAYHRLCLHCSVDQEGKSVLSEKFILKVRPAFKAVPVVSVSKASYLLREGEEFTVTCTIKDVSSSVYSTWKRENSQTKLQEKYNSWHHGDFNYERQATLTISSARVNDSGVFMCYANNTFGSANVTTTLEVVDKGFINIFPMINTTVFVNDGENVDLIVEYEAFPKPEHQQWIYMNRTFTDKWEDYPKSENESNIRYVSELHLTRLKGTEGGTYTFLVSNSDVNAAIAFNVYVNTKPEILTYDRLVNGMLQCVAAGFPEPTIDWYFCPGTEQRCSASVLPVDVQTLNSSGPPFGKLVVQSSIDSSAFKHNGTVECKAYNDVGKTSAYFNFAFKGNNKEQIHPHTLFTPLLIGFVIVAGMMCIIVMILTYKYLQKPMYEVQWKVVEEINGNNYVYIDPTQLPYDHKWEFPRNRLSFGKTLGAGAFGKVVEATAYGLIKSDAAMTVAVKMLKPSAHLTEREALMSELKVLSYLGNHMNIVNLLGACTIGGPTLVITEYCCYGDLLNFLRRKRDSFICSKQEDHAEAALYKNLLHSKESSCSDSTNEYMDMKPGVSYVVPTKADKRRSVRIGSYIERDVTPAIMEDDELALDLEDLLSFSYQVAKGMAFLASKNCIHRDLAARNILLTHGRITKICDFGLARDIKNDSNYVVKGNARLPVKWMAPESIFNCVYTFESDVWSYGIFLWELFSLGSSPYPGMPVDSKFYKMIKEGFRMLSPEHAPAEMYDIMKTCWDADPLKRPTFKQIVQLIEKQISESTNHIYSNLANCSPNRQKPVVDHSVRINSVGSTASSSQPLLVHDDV
Method: (§2) Exemplary compounds were tested for their ability to inhibit target engagement of KIT or CSF-1R kinases through competitive displacement of a Nano-Luc luciferase kinase fusion in HEK293 cells.
(§3) The NanoBRET target engagement assay employs an energy transfer technique designed to measure molecular proximity in living cells. The assay measures the apparent affinity of test compounds by competitive displacement of the NanoBRET tracer, reversibly bound to a NanoLuc luciferase-kinase fusion construct in cells. The intracellular binding affinity and selectivity are physiologically relevant and fundamental to the pharmacological mechanism of the compounds. While biochemical and biophysical assays identify the kinase inhibitors in vitro, the NanoBRET target engagement assay serves to determine the direct interaction of the compounds binding to target kinases in cells.
(§4) HEK293 cells transiently expressing NanoLuc-DDR1 fusion vector were seeded into 384-well plates and treated with the Tracer K-4 and compound for 1 hour. The BRET signal was measured on an EnVision 2104 multilabel microplate reader. NanoBRET Target Engagement Assay in HEK293 cells transiently transfected with KIT and CSF1R-NanoLuc Fusion Vector. HEK293 cells were transfected with […] KIT or CSF1R-NanoLuc Fusion Vector and […] carrier DNA. The transfected cells were treated with test compounds (starting at 10 μM, 10-dose with 3-fold dilution) and reference compound (desatinib) (starting at 1 μM, 10-dose with 3-fold dilution). Percent inhibition due to compound activity was calculated to determine IC50.

CYP3A4 = experiment: Hepatocyte CYP induction assay, CYP3A4 gene expression; format: in vitro ADME; conditions: human hepatocytes
Method: Exemplary compounds were tested for ability to induce CYP3A4 and/or CYP1A2 in hepatocytes. Procedures and results are described below.
Cryopreserved human hepatocytes were purchased from BioIVT (Baltimore, MD, USA), and they were stored in liquid nitrogen before using. The detailed information of hepatocytes is as follows:
Fresh dosing solutions of test compounds, and Rifampicin were prepared in the incubation medium on the day of dosing.
Cryopreserved hepatocytes were thawed and counted to determine yield, viability was measured. Hepatocytes at the concentrations of 0.7 million/mL were transferred to collagen-coated 96-well plates for attachment (0.1 mL viable cells/well). After allowing 4 to 5 hours for attachment of cells, the plating medium was replaced with Incubation Medium containing 2% (v/v) Matrigel™ (sandwich medium) and the hepatocytes were incubated until use.
All incubations were conducted at 37° C., 5% CO2, and saturated humidity.
The sandwich medium was removed and the hepatocytes were treated with incubation solutions containing test articles in vehicle (0.1% DMSO), or positive control for 24 hours after the cultures were established. The incubation solution was aspirated and replaced with incubation solution containing the same concentrations of test articles, vehicle, or positive controls for an additional 24 hours. The total treatment period was 48 hours. Triplicate were used for each concentration of test compound and positive control.
After treatment period of 48 hours, the incubation solution was aspirated. Hepatocytes were washed once with pre-warmed HBSS and incubated with 140 μL of RLT (lysis buffer from Rneasy 96 Kit) supplemented with 1% β-mercaptoethanol. Plates were then stored at ≤−60° C. freezer until RNA analysis.
Before RNA extraction, the frozen plate was thawed and cell lysates were transferred to 96-well plates. RNA isolation was performed using QIAcube HT System. RNA concentration was measured with NanoDrop ND-2000 spectrophotometer. The purity of RNA preparation was calculated by the ratio of the OD260 nm/OD280 nm and the acceptable range is between 1.8 and 2.2. Reverse transcription was performed to obtain cDNA. Quantification of the selective genes by real time quantitative Polymerase Chain Reaction (qPCR) was performed with TaqMan universal PCR Master Mix on the BIO-RAD CFX 384 Touch Real Time PCR System. The following setting were used: 50° C. for 2 minutes, 95° C. for 10 minutes, 40 cycles of 95° C. for 15 seconds and 60° C. for 1 minute. 18S rRNA was used as the internal standard.
To account for variation in RNA yields and reverse transcription polymerase chain reaction (RT-PCR), the gene of interest in all samples was normalized to an internal control gene (18S ribosomal RNA) (Cttarget gene−Ct18S=ΔCt).
The relative quantitation or change in mRNA level of selected genes induced by each test compound was expressed in relation to the vehicle control sample (Δctcompound−ΔCtvehicle=ΔΔCt). Fold changes in gene expression were determined by taking 2 to the power of this value (2^−ΔΔt).
% of positive control [(fold change in treated sample)−1]/[(fold change in positive control)−1]×100

wtKIT = target: T3, wtKIT (Homo sapiens, UniProt P10721); experiment: HTRF biochemical assay, wtKIT (phosphorylation of a peptide substrate); conditions: Table 4
T3 construct: 1888289AM in the reaction mixtures
T3 sequence (P10721 26-976): as above
Outline: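 HTRF read-out of FAM-peptide (1 µM) phosphorylation after anti-phosphotyrosine antibody addition and EDTA quench. Reaction: 5.0 nM wtKIT, 400 µM ATP, 10 mM Mn2+, HEPES pH 7.5, 1% DMSO, 3 h, 25 °C; optional enzyme-compound preincubation; enzyme level set for 10-20% conversion.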

CSF-1R = target: T4, CSF-1R (Homo sapiens, UniProt P07333); experiment: HTRF biochemical assay, CSF-1R; conditions: Table 4
T4 construct: purchased Invitrogen PV3249 (lot 662393N)
T4 sequence (P07333 20-972): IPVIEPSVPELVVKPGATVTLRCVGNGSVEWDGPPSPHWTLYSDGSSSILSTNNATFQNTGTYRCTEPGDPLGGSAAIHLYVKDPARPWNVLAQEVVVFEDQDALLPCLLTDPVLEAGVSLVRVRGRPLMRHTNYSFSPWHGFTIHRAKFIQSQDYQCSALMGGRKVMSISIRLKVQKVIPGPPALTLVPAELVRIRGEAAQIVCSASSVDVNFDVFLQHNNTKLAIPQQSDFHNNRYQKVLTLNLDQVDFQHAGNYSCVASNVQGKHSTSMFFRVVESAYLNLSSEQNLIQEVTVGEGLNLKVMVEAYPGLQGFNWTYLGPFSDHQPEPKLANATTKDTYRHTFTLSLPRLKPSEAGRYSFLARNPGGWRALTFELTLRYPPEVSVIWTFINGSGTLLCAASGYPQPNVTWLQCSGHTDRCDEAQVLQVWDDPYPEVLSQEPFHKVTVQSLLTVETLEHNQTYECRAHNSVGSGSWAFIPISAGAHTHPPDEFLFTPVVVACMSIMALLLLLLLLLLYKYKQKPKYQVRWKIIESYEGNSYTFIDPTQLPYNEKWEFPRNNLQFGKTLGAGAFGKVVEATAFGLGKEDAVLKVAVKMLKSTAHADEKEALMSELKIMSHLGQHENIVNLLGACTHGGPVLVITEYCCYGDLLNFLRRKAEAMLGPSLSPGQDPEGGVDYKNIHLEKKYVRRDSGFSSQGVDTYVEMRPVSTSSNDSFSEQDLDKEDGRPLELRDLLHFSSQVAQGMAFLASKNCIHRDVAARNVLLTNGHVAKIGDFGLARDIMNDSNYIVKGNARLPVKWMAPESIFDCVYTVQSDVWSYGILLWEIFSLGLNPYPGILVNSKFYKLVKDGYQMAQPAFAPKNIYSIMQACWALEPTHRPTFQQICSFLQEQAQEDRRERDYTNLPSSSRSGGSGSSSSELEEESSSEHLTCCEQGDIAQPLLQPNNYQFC
Outline: as §1

[2] = target: T5, CSF1R-NanoLuc fusion in HEK293 cells (Homo sapiens, UniProt P07333); experiment: NanoBRET cellular target engagement assay, CSF-1R; format: cell-based
T5 construct: expressed in transfected cells; host or cells: HEK293, transient transfection
T5 sequence (P07333 20-972): as above
Method: as §2, §3, §4

T1 sequence (P16234 24-1089): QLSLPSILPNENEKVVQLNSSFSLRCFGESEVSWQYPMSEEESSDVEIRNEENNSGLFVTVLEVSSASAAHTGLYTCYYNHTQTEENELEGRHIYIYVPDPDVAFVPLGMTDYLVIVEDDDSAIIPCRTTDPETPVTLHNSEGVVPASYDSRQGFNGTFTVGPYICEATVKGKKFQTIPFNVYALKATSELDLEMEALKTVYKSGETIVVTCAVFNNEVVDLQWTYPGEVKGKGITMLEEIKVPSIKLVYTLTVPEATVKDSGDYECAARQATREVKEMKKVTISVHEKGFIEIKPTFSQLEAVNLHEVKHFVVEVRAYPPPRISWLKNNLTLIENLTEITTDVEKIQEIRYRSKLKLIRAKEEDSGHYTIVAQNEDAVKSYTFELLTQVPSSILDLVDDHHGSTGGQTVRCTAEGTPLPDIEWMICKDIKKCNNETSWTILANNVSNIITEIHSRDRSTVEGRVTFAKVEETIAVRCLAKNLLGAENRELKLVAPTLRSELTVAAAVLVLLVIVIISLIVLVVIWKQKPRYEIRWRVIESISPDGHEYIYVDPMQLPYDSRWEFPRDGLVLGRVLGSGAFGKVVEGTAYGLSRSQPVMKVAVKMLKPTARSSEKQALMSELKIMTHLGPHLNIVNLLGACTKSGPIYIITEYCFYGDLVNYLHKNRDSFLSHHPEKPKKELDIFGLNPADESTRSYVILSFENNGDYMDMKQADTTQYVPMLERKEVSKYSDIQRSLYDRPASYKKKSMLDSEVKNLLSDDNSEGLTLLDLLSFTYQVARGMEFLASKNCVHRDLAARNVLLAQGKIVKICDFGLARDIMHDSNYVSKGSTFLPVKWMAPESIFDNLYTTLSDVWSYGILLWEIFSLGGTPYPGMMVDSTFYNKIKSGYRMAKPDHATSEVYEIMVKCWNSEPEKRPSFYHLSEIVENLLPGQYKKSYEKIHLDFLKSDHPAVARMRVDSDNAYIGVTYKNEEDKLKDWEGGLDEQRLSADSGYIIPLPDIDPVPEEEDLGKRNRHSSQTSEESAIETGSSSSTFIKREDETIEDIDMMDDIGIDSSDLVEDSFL

SMILES	IC50 (PDGFRα)	IC50 [1]	CYP 3A4 induction mRNA: Mean fold at 10 μM (CYP3A4; donor five)	CYP 3A4 induction mRNA: Mean fold at 10 μM (CYP3A4; donor four)	CYP 3A4 induction mRNA: Mean fold at 10 μM (CYP3A4; donor three)	IC50 (wtKIT)	IC50 (CSF-1R)	IC50 [2]	CYP 3A4 induction mRNA: Mean fold at 10 μM (CYP3A4; donor one)
Cc1ccc(-c2noc(CC(O)C(F)F)n2)cc1NC(=O)c1cnc2ccccn12 (stereo not drawn) [Compound I-114]	5000 to 30000 nM	≤ 100 nM	+ (induction fold of less than or equal to 2-fold)	+ (induction fold of less than or equal to 2-fold)	+ (induction fold of less than or equal to 2-fold)	≤ 50 nM	50 to 500 nM	> 10000 nM	
Cc1ccc(-c2noc([C@H]3C[C@@H]3F)n2)cc1NC(=O)c1cnc2cc(COCC(C)(C)O)ccn12 [Compound I-71, N-[5-[5-[(1R,2S)-2-fluorocyclopropyl]-1,2,4-oxadiazol-3-yl]-2-methyl-phenyl]-7-[(2-hydroxy-2-methyl-propoxy)methyl]imidazo[1,2-a]pyridine-3-carboxamide]	5000 to 30000 nM	≤ 100 nM	+ (induction fold of less than or equal to 2-fold)	+ (induction fold of less than or equal to 2-fold)		≤ 50 nM	≤ 50 nM	> 10000 nM	+ (induction fold of less than or equal to 2-fold)
Cc1ccc(-c2noc([C@H]3C[C@@H]3F)n2)cc1NC(=O)c1cnc2cc(OC(C)C)ccn12 [Compound I-88]	500 to 5000 nM	≤ 100 nM	+ (induction fold of less than or equal to 2-fold)	+ (induction fold of less than or equal to 2-fold)		≤ 50 nM	≤ 50 nM	> 10000 nM	+ (induction fold of less than or equal to 2-fold)
